Data from patent publication US20190137505A1 (THE ARIZONA BOARD OF REGENTS ON BEHALF OF THE UNIVERSITY OF …, priority 2015, published 2019).

Test: LC-MS/MS MRM quantitation of metformin-MG imidazolinone and metformin in human urine
Format: in vivo
Method: An Agilent (Palo Alto, Calif.) 1260 liquid chromatograph was utilized for achieving gradient separation using an Agilent ZORBAX Hilic Plus (2.1×50 mm) column with a 1.8 μm packing size held at 30° C. throughout the separation. A 5 μL injection of urine diluted 1:200 in Milli-Q water and snap filtered ([…] eXtreme® Filter Vial 0.2 um PVDF; Thomson, Oceanside, Calif.) was used for all samples. A binary gradient consisting of 15 mM ammonium acetate in water (A) and acetonitrile (B) at a flow rate of 300 μL/min was used. […] After this, a linear gradient was maintained to achieve 35% B at 9 min which was held for another minute. At 10 min, another linear change was applied to get to the initial condition of 95% B at 11 min. A post-time of three min was used to re-equilibriate the column before the next analysis. The total analysis time was 14 min per sample. Mass spectrometry was performed using an Agilent 6490 triple-quadrupole mass spectrometer with an electrospray ionization (ESI) source. […] After this was determined, the mass spectrometer was operated in product ion scan mode and the most abundant product ions were selected. […] Once the product ions were determined, the collision energy (CE) and cell accelerator voltage (CAV) were optimized for each transition. […]

Compound: CC1NC(/N=C(\N)N(C)C)=NC1=O (centres unmarked) [IMZ, (E)-1,1-dimethyl-2-(5-methyl-4-oxo-4,5-dihydro-1H-imidazol-2-yl)guanidine]
- IMZ in urine of MF-treated T2DM patients (all MF-treated T2DM patients): detected
- Levels of the MF-MG adduct detectable in urine (human diabetic subjects on MF treatment): up to 4.32 μM/specific gravity
